Results from US20250163022A1, “PARP1 INHIBITORS” (Synnovation Therapeutics, Inc., priority 2021, published 2025).

target: T1, PARP1 (Homo sapiens, UniProt P09874); test: In-Cell Western measurement of PARylation in PARP1 WT and knockout cells; type: cell-based; settings: HeLa cells (wide-type with PARP1 gene); hydrogen peroxide-induced PARylation; compounds 30 min, then 10 mM hydrogen peroxide 15 min; read-out: HeLa_WT_IC50
T1 construct: HeLa cells (wide-type with PARP1 gene) were purchased from ATCC; host or cells: HeLa (wild type)
T1 sequence (P09874 whole entry): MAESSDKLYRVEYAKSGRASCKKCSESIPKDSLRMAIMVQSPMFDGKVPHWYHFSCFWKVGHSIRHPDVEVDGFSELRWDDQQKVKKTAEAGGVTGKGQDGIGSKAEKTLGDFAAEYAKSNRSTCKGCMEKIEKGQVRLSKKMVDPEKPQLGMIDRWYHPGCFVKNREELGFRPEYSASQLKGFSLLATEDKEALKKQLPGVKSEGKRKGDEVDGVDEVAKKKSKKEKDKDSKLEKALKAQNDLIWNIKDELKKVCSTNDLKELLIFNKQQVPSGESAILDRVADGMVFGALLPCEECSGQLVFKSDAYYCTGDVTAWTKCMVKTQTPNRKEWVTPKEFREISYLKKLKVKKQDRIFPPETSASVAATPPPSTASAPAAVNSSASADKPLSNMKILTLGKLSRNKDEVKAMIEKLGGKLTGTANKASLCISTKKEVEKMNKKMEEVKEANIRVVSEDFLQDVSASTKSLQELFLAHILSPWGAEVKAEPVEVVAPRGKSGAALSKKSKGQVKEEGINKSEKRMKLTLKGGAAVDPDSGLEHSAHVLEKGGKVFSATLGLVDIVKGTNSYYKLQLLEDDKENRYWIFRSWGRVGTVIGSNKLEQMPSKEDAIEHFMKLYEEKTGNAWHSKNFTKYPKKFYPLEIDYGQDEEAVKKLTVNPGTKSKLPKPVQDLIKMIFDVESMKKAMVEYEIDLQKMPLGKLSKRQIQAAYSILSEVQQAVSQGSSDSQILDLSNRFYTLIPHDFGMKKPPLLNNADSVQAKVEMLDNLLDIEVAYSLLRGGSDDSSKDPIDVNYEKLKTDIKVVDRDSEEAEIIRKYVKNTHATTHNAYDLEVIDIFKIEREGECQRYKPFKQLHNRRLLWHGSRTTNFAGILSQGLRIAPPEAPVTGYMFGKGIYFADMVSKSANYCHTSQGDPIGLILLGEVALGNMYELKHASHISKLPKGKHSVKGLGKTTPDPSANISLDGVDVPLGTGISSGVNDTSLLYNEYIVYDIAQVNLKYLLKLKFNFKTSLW
From the text: The purpose of this cell-based assay is to measure the potency and selectivity of synthesized PARP inhibitors in suppressing hydrogen peroxide-induced PARylation in cells with and without PARP1 expression. Several cell lines were used in this assay. The human PARP1 knockout HEK-293T cell line (#ab266598) was purchased from Abcam, and its corresponding wide-type control is the human wild-type HEK-293T cell line (#ab255449). The HAP1 isogenic cell lines with and without the PARP1 gene (#HZGHC003943c006) were purchased from Horizon Discovery. HeLa cells (wide-type with PARP1 gene) were purchased from ATCC. Cells were cultured using complete medium containing 10% fetal bovine serum. One day before the assay, cells were seeded in 96-well plates at the density of 20,000 cells per well in 100 uL complete medium. Compounds were dissolved using DMSO and diluted to the working concentrations using complete medium. Cells were pre-treated with compounds for 30 min and then stimulated with 10 mM hydrogen peroxide for 15 min. After stimulation, cells were immediately fixed using ice-cold methanol for 20 min. After fixation, cells were washed using 1×PBST buffer for 3 times, 5 min each time, to eliminate residual methanol. Cells were blocked for 2 h at room temperature in blocking buffer (LI-COR Biosciences, #927-70001). Primary antibody was diluted in diluent buffer (LI-COR Biosciences, #927-75001, 1:200) at 50 uL per well. Cells were incubated with the primary antibody at 4° C. for 18 h. The wells were then washed using 1×PBST for 3 times, 5 min each time. IRDye® 680RD Goat anti-Mouse IgG (H+L) secondary antibody was diluted at 1/2000 using the diluent buffer and added at 100 μL per well. Secondary antibody incubation was for 1 h at room temperature. Cells were then washed using 1×PBST for 3 times, 5 min each time. The signal was detected and analyzed using LI-COR Odyssey DLx Imaging system. Data were collected and further processed using GraphPad Prism for IC50 estimation.

| Compound | IC50 [nM] |
| --- | --- |
| CCN1C(=O)Nc2c(F)c(CN3CCN(c4ccc(C(=O)NOC)nc4C)CC3)cc3ncnc1c23 [Compound I-57, 5-(4-((3-Ethyl-9-fluoro-2-oxo-2,3-dihydro-1H-pyrimido[4,5,6-de]quinazolin-8-yl)methyl)piperazin-1-yl)-N-methoxy-6-methylpicolinamide] | ≤ 10 |
| CCN1C(=O)Nc2c(F)c(CN3CCN(c4ccc(C(=O)N[C@H]5CCCOC5)nc4C)CC3)cc3ncnc1c23 [Compound I-63, (S)-5-(4-((3-ethyl-9-fluoro-2-oxo-2,3-dihydro-1H-pyrimido[4,5,6-de]quinazolin-8-yl)methyl)piperazin-1-yl)-6-methyl-N-(tetrahydro-2H-pyran-3-yl)picolinamide] | ≤ 10 |
| CCN1C(=O)Nc2c(F)c(CN3CCN(c4ccc(C(=O)N[C@@H]5CCOC5)nc4C)CC3)cc3ncnc1c23 [Compound I-67, (R)-5-(4-((3-ethyl-9-fluoro-2-oxo-2,3-dihydro-1H-pyrimido[4,5,6-de]quinazolin-8-yl)methyl)piperazin-1-yl)-6-methyl-N-(tetrahydrofuran-3-yl)picolinamide] | ≤ 10 |
| CCN1C(=O)Nc2c(F)c(CN3CCN(c4ccc(C(=O)NC5CN(C)C5)nc4C)CC3)cc3ncnc1c23 [Compound I-71, 5-(4-((3-ethyl-9-fluoro-2-oxo-2,3-dihydro-1H-pyrimido[4,5,6-de]quinazolin-8-yl)methyl)piperazin-1-yl)-6-methyl-N-(1-methylazetidin-3-yl)picolinamide] | ≤ 10 |
| CCN1C(=O)Nc2c(F)c(CN3CCN(c4ccc(C(=O)N[C@H]5CCOC5)nc4C)CC3)cc3ncnc1c23 [Compound I-73, (S)-5-(4-((3-ethyl-9-fluoro-2-oxo-2,3-dihydro-1H-pyrimido[4,5,6-de]quinazolin-8-yl)methyl)piperazin-1-yl)-6-methyl-N-(tetrahydrofuran-3-yl)picolinamide] | ≤ 10 |
| CCN1C(=O)Nc2c(F)c(CN3CCN(c4ccc(C(=O)N[C@H]5CC[C@@H](C#N)CC5)nc4C)CC3)cc3ncnc1c23 [Compound I-74, N-((1s,4s)-4-cyanocyclohexyl)-5-(4-((3-ethyl-9-fluoro-2-oxo-2,3-dihydro-1H-pyrimido[4,5,6-de]quinazolin-8-yl)methyl)piperazin-1-yl)-6-methylpicolinamide] | 10 to 100 |
| CCN1C(=O)Nc2c(F)c(CN3CCN(c4ccc(C(=O)N[C@H]5CC[C@H](C#N)CC5)nc4C)CC3)cc3ncnc1c23 [Compound I-75, N-((1r,4r)-4-cyanocyclohexyl)-5-(4-((3-ethyl-9-fluoro-2-oxo-2,3-dihydro-1H-pyrimido[4,5,6-de]quinazolin-8-yl)methyl)piperazin-1-yl)-6-methylpicolinamide] | 10 to 100 |
| CCN1C(=O)Nc2c(F)c(CN3CCN(c4ccc(C(=O)NC5CC5)cc4C)CC3)cc3ncnc1c23 [Compound I-82, N-cyclopropyl-4-(4-((3-ethyl-9-fluoro-2-oxo-2,3-dihydro-1H-pyrimido[4,5,6-de]quinazolin-8-yl)methyl)piperazin-1-yl)-3-methylbenzamide] | ≤ 10 |
| CCN1C(=O)Nc2c(F)c(CN3CCN(c4ccc(C(=O)NC5CC5)cc4F)CC3)cc3ncnc1c23 [Compound I-86, N-cyclopropyl-4-(4-((3-ethyl-9-fluoro-2-oxo-2,3-dihydro-1H-pyrimido[4,5,6-de]quinazolin-8-yl)methyl)piperazin-1-yl)-3-fluorobenzamide] | 10 to 100 |

The remaining lines, values ahead:

| IC50 [nM] | Compound |
| --- | --- |
| ≤ 10 | CCN1C(=O)Nc2c(F)c(CN3CCN(c4ccc(C(=O)NC5CC5)nc4C)CC3)cc3ncnc1c23 [Compound I-55, N-cyclopropyl-5-(4-((3-ethyl-9-fluoro-2-oxo-2,3-dihydro-1H-pyrimido[4,5,6-de]quinazolin-8-yl)methyl)piperazin-1-yl)-6-methylpicolinamide] |
| ≤ 10 | CCN1C(=O)Nc2c(F)c(CN3CCN(c4ccc(C(=O)NC5CC5)nc4C)CC3)cc3c(C)nnc1c23 [Compound I-56, N-cyclopropyl-5-(4-((9-ethyl-6-fluoro-3-methyl-8-oxo-8,9-dihydro-7H-pyridazino[3,4,5-de]quinazolin-5-yl)methyl)piperazin-1-yl)-6-methylpicolinamide] |
| ≤ 10 | CCN1C(=O)Nc2c(F)c(CN3CCN(c4ccc(C(=O)NOCC5CC5)nc4C)CC3)cc3ncnc1c23 [Compound I-58, N-(cyclopropylmethoxy)-5-(4-((3-ethyl-9-fluoro-2-oxo-2,3-dihydro-1H-pyrimido[4,5,6-de]quinazolin-8-yl)methyl)piperazin-1-yl)-6-methylpicolinamide] |
| ≤ 10 | CCN1C(=O)Nc2c(F)c(CN3CCN(c4ccc(C(=O)NC5(CO)CC5)nc4C)CC3)cc3ncnc1c23 [Compound I-59, 5-(4-((3-ethyl-9-fluoro-2-oxo-2,3-dihydro-1H-pyrimido[4,5,6-de]quinazolin-8-yl)methyl)piperazin-1-yl)-N-(1-(hydroxymethyl)cyclopropyl)-6-methylpicolinamide] |
| ≤ 10 | CCN1C(=O)Nc2c(F)c(CN3CCN(c4ccc(C(=O)N[C@H]5C[C@H](C#N)C5)nc4C)CC3)cc3ncnc1c23 [Compound I-60, N-((1r,3r)-3-cyanocyclobutyl)-5-(4-((3-ethyl-9-fluoro-2-oxo-2,3-dihydro-1H-pyrimido[4,5,6-de]quinazolin-8-yl)methyl)piperazin-1-yl)-6-methylpicolinamide] |
| ≤ 10 | CCN1C(=O)Nc2c(F)c(CN3CCN(c4ccc(C(=O)NC5(C#N)CC5)nc4C)CC3)cc3ncnc1c23 [Compound I-62, N-(1-cyanocyclopropyl)-5-(4-((3-ethyl-9-fluoro-2-oxo-2,3-dihydro-1H-pyrimido[4,5,6-de]quinazolin-8-yl)methyl)piperazin-1-yl)-6-methylpicolinamide] |
| ≤ 10 | CCN1C(=O)Nc2c(F)c(CN3CCN(c4ccc(C(=O)N[C@H]5C[C@@H](C#N)C5)nc4C)CC3)cc3ncnc1c23 [Compound I-65, N-((1s,3s)-3-cyanocyclobutyl)-5-(4-((3-ethyl-9-fluoro-2-oxo-2,3-dihydro-1H-pyrimido[4,5,6-de]quinazolin-8-yl)methyl)piperazin-1-yl)-6-methylpicolinamide] |
| ≤ 10 | CCN1C(=O)Nc2c(F)c(CN3CCN(c4ccc(C(=O)NC5(COC)CC5)nc4C)CC3)cc3ncnc1c23 [Compound I-66, 5-(4-((3-ethyl-9-fluoro-2-oxo-2,3-dihydro-1H-pyrimido[4,5,6-de]quinazolin-8-yl)methyl)piperazin-1-yl)-N-(1-(methoxymethyl)cyclopropyl)-6-methylpicolinamide] |
| 10 to 100 | CCN1C(=O)Nc2c(F)c(CN3CCN(c4ccc(C(=O)N[C@@H]5[C@@H]6COC[C@@H]65)nc4C)CC3)cc3ncnc1c23 [Compound I-69, N-((1R,5S,6s)-3-oxabicyclo[3.1.0]hexan-6-yl)-5-(4-((3-ethyl-9-fluoro-2-oxo-2,3-dihydro-1H-pyrimido[4,5,6-de]quinazolin-8-yl)methyl)piperazin-1-yl)-6-methylpicolinamide] |
| ≤ 10 | CCN1C(=O)Nc2c(F)c(CN3CCN(c4ccc(C(=O)N[C@H]5[C@@H]6COC[C@@H]65)nc4C)CC3)cc3ncnc1c23 [Compound I-70, N-((1R,5S,6r)-3-oxabicyclo[3.1.0]hexan-6-yl)-5-(4-((3-ethyl-9-fluoro-2-oxo-2,3-dihydro-1H-pyrimido[4,5,6-de]quinazolin-8-yl)methyl)piperazin-1-yl)-6-methylpicolinamide] |
| 10 to 100 | CCN1C(=O)Nc2c(F)c(CN3CCN(c4ccc(C(=O)N[C@@H]5CCN(C)C5)nc4C)CC3)cc3ncnc1c23 [Compound I-77, (R)-5-(4-((3-ethyl-9-fluoro-2-oxo-2,3-dihydro-1H-pyrimido[4,5,6-de]quinazolin-8-yl)methyl)piperazin-1-yl)-6-methyl-N-(1-methylpyrrolidin-3-yl)picolinamide] |
| ≤ 10 | CCN1C(=O)Nc2c(F)c(CN3CCN(c4ccc(C(=O)N[C@H]5CCN(C)C5)nc4C)CC3)cc3ncnc1c23 [Compound I-78, (S)-5-(4-((3-ethyl-9-fluoro-2-oxo-2,3-dihydro-1H-pyrimido[4,5,6-de]quinazolin-8-yl)methyl)piperazin-1-yl)-6-methyl-N-(1-methylpyrrolidin-3-yl)picolinamide] |
| ≤ 10 | CCN1C(=O)Nc2c(F)c(CN3CCN(c4ccc(C(=O)NC5(CC#N)CC5)nc4C)CC3)cc3ncnc1c23 [Compound I-79, N-(1-(cyanomethyl)cyclopropyl)-5-(4-((3-ethyl-9-fluoro-2-oxo-2,3-dihydro-1H-pyrimido[4,5,6-de]quinazolin-8-yl)methyl)piperazin-1-yl)-6-methylpicolinamide] |
| 10 to 100 | CCN1C(=O)Nc2c(F)c(CN3CCN(c4ccc(C(=O)NC5CC5)nc4C)CC3)cc3c(=O)n(C)nc1c23 [Compound I-80, N-cyclopropyl-5-(4-((9-ethyl-6-fluoro-2-methyl-3,8-dioxo-2,7,8,9-tetrahydro-3H-pyridazino[3,4,5-de]quinazolin-5-yl)methyl)piperazin-1-yl)-6-methylpicolinamide] |
